Test results taken from ChEMBL document CHEMBL1201862, “PubChem BioAssay data set” (2004).
Calls of active or inactive are those of the source.

How the values were obtained:
[1] = molecular target: T1, Low molecular weight phosphotyrosine protein phosphatase (Homo sapiens, UniProt P24666); assay type: functional; conditions: read-out: IC50_Mean
T1 sequence (P24666 whole entry): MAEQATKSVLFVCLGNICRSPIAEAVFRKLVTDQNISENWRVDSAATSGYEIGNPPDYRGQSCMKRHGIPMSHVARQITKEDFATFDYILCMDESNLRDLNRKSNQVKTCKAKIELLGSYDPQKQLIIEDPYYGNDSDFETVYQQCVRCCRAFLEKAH

[2] = molecular target: T1, Low molecular weight phosphotyrosine protein phosphatase; assay type: functional; conditions: read-out: IC50_Mean; remark: listed apart in the source
[3] = molecular target: T2, Carboxy-terminal domain RNA polymerase II polypeptide A small phosphatase 1 (Homo sapiens, UniProt Q9GZU7); assay: inhibitors of CTDSP1, concentration-response testing, biochemical assay, absorbance-based, actives from ultra-high-throughput screening (AID 540297); assay type: functional
T2 sequence (Q9GZU7 whole entry): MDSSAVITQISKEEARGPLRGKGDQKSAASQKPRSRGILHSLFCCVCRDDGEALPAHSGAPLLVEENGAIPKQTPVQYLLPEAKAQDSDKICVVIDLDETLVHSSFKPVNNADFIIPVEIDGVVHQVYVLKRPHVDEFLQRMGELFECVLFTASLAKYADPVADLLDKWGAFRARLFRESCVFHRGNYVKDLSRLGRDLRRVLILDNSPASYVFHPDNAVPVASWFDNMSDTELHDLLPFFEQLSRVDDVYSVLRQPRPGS

[4] = growth suppression of beta-catenin-knockout colon cells, dose response, cell-based, HCT116, human colon tumor (AID 1045); assay type: functional;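 also: HCT116 colon tumor cells with beta catenin knocked out; cells exposed to compound for 60 hours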
[5] = molecular target: T3, Mitochondrial peptide methionine sulfoxide reductase (Bos taurus, UniProt P54149); assay type: functional;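 also: absorbance read-out, biochemical high-throughput dose-response screen for MsrA inhibitors, confirmatory; recombinant bovine MsrA coupled to E. coli TrxB with NADPH and selenocystamine; potency is for inhibitors of MsrA activity on DMSO substrate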
T3 sequence (P54149 whole entry): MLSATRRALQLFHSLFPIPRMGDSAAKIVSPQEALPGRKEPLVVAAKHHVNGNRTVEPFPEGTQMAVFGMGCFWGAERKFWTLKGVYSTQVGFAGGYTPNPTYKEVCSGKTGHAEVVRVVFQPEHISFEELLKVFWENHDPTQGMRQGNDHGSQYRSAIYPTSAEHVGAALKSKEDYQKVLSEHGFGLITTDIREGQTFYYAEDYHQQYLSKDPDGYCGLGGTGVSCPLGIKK

[6] = molecular target: T4, Replicative DNA helicase DnaB (Mycobacterium tuberculosis, UniProt P9WMR3); assay: DnaB intein splicing inhibitors, dose response, biochemical, cell-free fluorescence (AID 449749); assay type: functional
T4 sequence (P9WMR3 whole entry): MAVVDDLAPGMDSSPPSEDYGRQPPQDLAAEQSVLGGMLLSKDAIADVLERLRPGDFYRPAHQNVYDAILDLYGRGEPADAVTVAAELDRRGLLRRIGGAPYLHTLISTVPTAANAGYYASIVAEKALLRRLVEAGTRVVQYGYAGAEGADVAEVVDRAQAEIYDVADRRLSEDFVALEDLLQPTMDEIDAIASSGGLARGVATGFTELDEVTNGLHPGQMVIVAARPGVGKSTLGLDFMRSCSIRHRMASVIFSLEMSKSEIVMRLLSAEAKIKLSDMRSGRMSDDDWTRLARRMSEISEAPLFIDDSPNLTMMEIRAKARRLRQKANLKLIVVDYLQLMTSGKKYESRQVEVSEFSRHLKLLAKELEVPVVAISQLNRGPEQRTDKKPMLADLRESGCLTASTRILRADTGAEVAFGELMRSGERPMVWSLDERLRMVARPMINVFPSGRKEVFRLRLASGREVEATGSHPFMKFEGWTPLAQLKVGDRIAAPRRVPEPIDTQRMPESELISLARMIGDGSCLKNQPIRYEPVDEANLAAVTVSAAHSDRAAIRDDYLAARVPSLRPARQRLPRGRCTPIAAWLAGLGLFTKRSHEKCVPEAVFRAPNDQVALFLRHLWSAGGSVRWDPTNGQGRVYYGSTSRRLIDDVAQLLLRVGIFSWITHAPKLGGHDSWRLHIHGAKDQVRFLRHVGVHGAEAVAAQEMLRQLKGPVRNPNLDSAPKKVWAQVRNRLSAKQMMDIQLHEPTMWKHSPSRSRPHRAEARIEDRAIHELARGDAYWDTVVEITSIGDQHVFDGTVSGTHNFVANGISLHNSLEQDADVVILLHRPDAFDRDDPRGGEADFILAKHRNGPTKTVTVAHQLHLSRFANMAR

[7] = growth suppression of PTEN-null colon cells, dose response, cell-based, HCT116 PTEN knockout (AID 1047); assay type: functional;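 also: HCT116 colon tumor cells with PTEN knocked out; cells exposed to compound for 60 hours before readout; potency for loss of cell viability measured by luminescence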
[8] = system: BJ; assay: cytotoxicity toward BJ-TERT fibroblasts, dose response, cell-based, RAS-independent, luminescence (AID 1933); assay type: functional; conditions: Homo sapiens
[9] = system: BJ; assay: cells; assay type: functional, cell-based; conditions: Homo sapiens
[10] = system: BJ; assay: cytotoxicity toward BJ-TERT-LT-ST fibroblasts, dose response, cell-based, RAS-independent, luminescence (AID 1935); assay type: functional; conditions: Homo sapiens;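 also: BJ fibroblasts immortalized with TERT plus LT and ST oncogenes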
[11] = molecular target: T5, Protein RecA (Mycobacterium tuberculosis, UniProt P9WHJ3); assay: Fluorescence Cell-Free Homogeneous Dose Retest to Identify Inhibitors of RecA-Intein Splicing Activity. [Related pubchem assays (depositor defined):AID2097, AID2223, AID489010, AID492950]; assay type: functional
T5 sequence (P9WHJ3 whole entry): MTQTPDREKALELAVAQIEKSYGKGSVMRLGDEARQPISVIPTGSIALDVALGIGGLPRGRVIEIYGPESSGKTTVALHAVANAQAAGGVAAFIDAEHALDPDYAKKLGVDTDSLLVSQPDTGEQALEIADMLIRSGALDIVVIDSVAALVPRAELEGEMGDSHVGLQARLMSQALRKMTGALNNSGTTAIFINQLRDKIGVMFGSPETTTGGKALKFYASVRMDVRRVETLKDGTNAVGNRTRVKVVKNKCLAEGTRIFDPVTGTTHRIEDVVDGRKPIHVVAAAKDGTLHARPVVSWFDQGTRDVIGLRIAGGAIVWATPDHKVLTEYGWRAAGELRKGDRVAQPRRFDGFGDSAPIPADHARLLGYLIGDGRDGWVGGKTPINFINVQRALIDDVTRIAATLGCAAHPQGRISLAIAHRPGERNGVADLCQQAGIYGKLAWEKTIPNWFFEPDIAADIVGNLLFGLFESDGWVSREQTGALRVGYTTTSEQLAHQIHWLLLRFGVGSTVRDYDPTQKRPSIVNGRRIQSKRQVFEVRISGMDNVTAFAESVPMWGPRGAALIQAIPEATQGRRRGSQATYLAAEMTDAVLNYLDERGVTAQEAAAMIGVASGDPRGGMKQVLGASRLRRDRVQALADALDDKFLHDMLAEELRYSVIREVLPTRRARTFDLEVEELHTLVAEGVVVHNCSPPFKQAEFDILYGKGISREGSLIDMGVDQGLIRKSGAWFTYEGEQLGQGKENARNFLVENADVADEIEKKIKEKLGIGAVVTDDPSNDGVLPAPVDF

[12] = cytotoxicity toward DRD oncogenic fibroblasts, dose response, cell-based, non-viral oncogenic, luminescence (AID 1934); assay type: functional; conditions: Homo sapiens
[13] = molecular target: T6, Hexokinase HKDC1 (Homo sapiens, UniProt Q2TB90); assay: HKDC1 hexokinase inhibitors, dose response, biochemical, W721R variant (AID 504729); assay type: functional
T6 sequence (Q2TB90 whole entry): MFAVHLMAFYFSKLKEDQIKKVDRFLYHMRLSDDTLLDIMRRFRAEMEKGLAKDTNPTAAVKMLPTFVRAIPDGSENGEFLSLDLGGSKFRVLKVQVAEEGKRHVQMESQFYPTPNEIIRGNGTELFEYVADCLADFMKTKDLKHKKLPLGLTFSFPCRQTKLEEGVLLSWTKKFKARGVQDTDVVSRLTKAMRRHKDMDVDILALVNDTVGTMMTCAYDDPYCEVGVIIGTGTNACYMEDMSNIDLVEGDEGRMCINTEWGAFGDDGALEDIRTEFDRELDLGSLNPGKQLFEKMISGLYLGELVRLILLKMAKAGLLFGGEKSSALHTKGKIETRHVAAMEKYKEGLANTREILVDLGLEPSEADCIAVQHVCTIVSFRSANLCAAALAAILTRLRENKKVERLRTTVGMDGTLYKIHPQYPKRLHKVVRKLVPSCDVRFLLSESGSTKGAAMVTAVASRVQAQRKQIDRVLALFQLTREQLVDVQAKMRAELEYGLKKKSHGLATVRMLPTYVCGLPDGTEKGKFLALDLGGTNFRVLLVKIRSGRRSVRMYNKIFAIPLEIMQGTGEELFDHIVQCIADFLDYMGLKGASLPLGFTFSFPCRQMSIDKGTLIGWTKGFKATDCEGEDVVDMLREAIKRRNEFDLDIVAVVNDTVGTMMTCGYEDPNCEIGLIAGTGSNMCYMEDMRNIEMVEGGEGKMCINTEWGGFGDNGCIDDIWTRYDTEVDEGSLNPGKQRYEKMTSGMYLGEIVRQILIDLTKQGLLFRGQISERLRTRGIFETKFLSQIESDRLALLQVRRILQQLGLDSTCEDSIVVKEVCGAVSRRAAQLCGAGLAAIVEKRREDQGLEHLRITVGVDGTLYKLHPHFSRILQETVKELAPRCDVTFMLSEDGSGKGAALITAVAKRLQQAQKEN

[14] = molecular target: Potassium voltage-gated channel subfamily KQT member 2 (Rattus norvegicus, UniProt O88943); assay: KCNQ2 potassium channel inhibitors, dose response, cell-based, automated electrophysiology, set II, rat KCNQ2 (AID 588637); assay type: functional
[15] = molecular target: Voltage-dependent T-type calcium channel subunit alpha-1H (Homo sapiens, UniProt O95180); assay type: functional;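 also: channel activity triggered by adding a high calcium stimulation buffer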
Sequence of Voltage-dependent T-type calcium channel subunit alpha-1H (O95180 whole entry): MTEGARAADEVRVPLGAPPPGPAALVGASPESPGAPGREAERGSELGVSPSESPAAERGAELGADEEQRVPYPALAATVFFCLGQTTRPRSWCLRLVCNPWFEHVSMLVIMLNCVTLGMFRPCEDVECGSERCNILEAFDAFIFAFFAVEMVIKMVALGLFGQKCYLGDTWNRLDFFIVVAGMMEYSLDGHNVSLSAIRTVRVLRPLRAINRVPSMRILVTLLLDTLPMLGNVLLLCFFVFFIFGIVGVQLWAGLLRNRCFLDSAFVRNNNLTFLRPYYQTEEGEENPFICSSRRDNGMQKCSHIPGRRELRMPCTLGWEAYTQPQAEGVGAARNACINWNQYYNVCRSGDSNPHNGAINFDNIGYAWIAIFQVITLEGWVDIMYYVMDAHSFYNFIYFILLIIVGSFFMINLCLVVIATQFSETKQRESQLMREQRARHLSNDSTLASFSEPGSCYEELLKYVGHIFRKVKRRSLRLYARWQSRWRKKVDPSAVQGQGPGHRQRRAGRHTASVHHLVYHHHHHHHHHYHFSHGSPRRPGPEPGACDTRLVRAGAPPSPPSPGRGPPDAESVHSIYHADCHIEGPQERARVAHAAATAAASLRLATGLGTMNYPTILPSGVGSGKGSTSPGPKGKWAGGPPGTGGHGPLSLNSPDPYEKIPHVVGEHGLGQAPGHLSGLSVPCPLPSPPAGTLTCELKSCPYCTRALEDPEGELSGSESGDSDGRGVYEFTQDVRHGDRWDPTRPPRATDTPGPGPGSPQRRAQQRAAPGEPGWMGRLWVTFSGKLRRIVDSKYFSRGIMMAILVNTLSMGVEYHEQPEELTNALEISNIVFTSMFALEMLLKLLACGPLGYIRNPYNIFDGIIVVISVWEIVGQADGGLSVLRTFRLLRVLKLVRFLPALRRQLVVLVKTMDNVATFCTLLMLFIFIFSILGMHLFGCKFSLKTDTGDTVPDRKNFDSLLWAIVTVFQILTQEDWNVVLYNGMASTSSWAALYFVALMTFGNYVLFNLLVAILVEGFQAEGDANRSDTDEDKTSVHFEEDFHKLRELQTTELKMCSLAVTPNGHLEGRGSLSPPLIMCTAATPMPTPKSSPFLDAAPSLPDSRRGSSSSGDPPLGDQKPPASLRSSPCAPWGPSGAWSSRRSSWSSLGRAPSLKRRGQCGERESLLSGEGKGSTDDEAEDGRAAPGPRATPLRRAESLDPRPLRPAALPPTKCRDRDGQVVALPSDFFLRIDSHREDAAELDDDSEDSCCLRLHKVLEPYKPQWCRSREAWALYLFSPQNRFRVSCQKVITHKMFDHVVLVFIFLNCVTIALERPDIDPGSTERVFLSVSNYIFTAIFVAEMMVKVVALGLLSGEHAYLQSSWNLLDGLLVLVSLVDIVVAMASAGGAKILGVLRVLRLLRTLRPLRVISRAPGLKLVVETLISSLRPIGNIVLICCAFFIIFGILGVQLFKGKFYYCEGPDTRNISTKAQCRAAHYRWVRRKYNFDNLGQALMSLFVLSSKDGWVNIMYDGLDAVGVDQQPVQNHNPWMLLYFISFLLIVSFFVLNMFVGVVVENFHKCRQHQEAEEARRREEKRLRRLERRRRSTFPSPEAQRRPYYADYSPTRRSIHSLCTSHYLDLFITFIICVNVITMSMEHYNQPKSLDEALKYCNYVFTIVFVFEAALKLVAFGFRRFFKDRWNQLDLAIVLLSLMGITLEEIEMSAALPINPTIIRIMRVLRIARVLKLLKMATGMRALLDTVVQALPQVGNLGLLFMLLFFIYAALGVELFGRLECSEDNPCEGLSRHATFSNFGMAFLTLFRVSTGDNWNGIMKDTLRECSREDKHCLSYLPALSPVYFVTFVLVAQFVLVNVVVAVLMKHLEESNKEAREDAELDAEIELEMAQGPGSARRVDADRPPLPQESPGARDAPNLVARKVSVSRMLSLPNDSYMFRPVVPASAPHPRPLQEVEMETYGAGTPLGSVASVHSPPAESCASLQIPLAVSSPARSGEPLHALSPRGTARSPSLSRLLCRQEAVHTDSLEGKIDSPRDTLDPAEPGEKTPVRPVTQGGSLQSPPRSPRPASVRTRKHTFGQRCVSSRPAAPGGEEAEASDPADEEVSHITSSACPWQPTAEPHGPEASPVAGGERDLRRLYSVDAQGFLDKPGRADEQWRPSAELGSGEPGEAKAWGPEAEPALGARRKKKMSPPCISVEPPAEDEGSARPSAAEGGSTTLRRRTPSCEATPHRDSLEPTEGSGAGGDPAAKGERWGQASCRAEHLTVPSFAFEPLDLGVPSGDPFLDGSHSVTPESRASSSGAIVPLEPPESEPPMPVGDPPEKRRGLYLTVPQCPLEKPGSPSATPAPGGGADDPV

Sequence of Potassium voltage-gated channel subfamily KQT member 2 (O88943 whole entry): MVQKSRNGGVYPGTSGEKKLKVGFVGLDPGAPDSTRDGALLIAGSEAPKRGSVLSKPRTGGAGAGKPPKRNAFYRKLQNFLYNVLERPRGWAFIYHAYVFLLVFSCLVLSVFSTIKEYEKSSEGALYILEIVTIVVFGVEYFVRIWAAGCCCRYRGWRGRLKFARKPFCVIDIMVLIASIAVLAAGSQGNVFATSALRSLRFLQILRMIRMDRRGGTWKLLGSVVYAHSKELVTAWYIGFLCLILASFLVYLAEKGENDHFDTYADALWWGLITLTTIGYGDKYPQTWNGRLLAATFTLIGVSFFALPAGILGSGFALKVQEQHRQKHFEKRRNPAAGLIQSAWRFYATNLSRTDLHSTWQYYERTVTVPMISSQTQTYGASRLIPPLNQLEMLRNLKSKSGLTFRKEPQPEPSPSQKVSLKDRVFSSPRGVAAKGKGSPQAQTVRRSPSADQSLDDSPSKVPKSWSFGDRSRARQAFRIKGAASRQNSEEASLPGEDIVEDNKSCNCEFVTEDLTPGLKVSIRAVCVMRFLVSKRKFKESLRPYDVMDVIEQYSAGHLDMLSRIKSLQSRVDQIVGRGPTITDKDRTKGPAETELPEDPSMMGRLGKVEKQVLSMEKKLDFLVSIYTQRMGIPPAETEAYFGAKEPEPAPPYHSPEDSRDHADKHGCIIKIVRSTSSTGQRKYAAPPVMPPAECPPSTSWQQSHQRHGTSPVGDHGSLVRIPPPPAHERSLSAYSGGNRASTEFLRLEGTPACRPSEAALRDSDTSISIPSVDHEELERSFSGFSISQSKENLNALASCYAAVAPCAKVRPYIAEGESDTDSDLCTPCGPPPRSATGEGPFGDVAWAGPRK

With `Cc1cc2oc(C(=O)NCCc3ccc(S(N)(=O)=O)cc3)c(C)c2cc1C` the IC50 [1] was 48.1 µM (inactive), the IC50 [2] was 29.9 µM (inactive) and the IC50 [3] was > 80 µM (inactive).
For `O=C(C1=C(c2ccccc2)C(=O)c2ccccc2C1=O)c1ccccc1`, the EC50 [4] was 2.72 µM (active), the IC50 [5] was 13.8 µM (inactive) and the AC50 [6] was 8.2 µM (active). The EC50 [7] was 2.73 µM (active), the EC50 [8] was 5.95 µM (inconclusive) and the EC50 [9] was 7.17 µM (active). For the same compound, the EC50 [10] was 8.65 µM (inconclusive), the EC50 [11] was 0.862 µM (active) and the EC50 [12] was > 150 µM (not active). For the same compound, the IC50 [13] was 10.1 µM (active).
For `CCOc1ccc(-c2nc(CSCC(=O)NC3CCCc4ccccc43)c(C)o2)cc1` (stereo not given), the IC50 [14] was 1.51 µM (active) and the EC50 [15] was 3.26 µM (active).
